Paper PMC12040169 (PLOS Biology, 2025)

Test: in vitro
Conditions: human, hela cells, % viability

Row | SMILES | viability at 28.5 h, 10 µM
1 | S=C(Nc1cccnc1)N[C@H]1CC[C@@]2(c3cccnc3)CCN(Cc3ccccc3)[C@H]2C1 [CBK028450] | 94.8%
2 | CC(C)CNC(=S)N[C@H]1CC[C@@]2(c3cccnc3)CCN(Cc3ccccc3)[C@H]2C1 [CBK028460] | 125%
3 | NCC1CCN(c2cc(C(F)(F)F)c3scc(C(=O)NCCC4=CCCCC4)c3n2)CC1 [CBK028475] | 83.2%
4 | COc1ccc2sc(C)nc2c1 [CBK028488] | 101%
5 | COC(=O)CCC1(C)CN(C)CCC1=O (centres unmarked) [CBK028494] | 85%
6 | O=C(c1ccccc1Br)N1CCCCC1 [CBK028504] | 87.6%
7 | CC(O)(CC#N)c1ccccc1 (centres unmarked) [CBK028508] | 114%
8 | N#CC(c1ccc(O)cc1)N1CCCCC1 (centres unmarked) [CBK028556] | 94.4%
9 | C[n+]1cn(/N=C/c2ccco2)cn1 [CBK028562I] | 104%
10 | O=C(O)C1(NS(=O)(=O)c2ccc(Cl)cc2)CCCCC1 [CBK028566] | 111%
11 | CC1CN(c2nccn(CCOc3ccc(Br)cc3)c2=O)CCN1 (centres unmarked) [CBK028596T] | 94.2%
12 | O=c1c(N2CCCNCC2)nccn1CCOc1ccc(Br)cc1 [CBK028613T] | 95%
13 | O=c1c(N2CCCNCC2)nccn1CCOc1ccc(Oc2ccccc2)cc1 [CBK028615T] | 101%
14 | Fc1cc(F)c(OCCCCOc2nccnc2N2CCNCC2)cc1F [CBK028624T] | 105%
15 | Cc1ccc(S(=O)(=O)Nc2sc3c(c2C(=O)N2CCN(C)CC2)CCCC3)cc1[N+](=O)[O-] [CBK028650] | 93.9%
16 | O=C(Nc1ccc(F)cc1)c1c(NS(=O)(=O)c2ccc(Oc3ccccc3)cc2)sc2c1CCCC2 [CBK028653] | 96.7%
17 | O=C(Nc1ccc(F)cc1)c1c(NS(=O)(=O)Cc2ccccc2[N+](=O)[O-])sc2c1CCCC2 [CBK028654] | 85.3%
18 | O=C(c1c(NS(=O)(=O)c2cccc3cccnc23)sc2c1CCCC2)N1CCOCC1 [CBK028655] | 84.2%
19 | CCCc1ccc(S(=O)(=O)Nc2ccc(C(=O)OC)cc2)cc1 [CBK028682] | 99.5%

Row | SMILES | viability at 28.5 h, 10 µM
20 | COC(=O)c1ccc(NS(=O)(=O)c2cccc3cccnc23)cc1 [CBK028694] | 104%
21 | COC(=O)c1ccc(NS(=O)(=O)Cc2ccccc2)cc1 [CBK028699] | 91.4%
22 | CC(=O)Nc1cccc(NS(=O)(=O)c2ccc(N3CCNCC3)c3ccccc23)c1 [CBK028702C] | 105%
23 | Nc1nc2ccccc2c(=O)[nH]1 [CBK028707] | 101%
24 | C/C(=N/Nc1nc[nH]n1)c1ccc(Cl)c(Cl)c1 [CBK028722] | 80%
25 | CN(/N=C/c1cc(Br)cs1)c1ccc(Cl)nn1 [CBK028729] | 94.1%
26 | Cc1cc(CN2CCCC2)cc(C)c1O [CBK028736C] | 96.3%
27 | OCCSc1ccc(C(F)(F)F)cn1 [CBK028739] | 115%
28 | CCCc1cnc(N2CCOCC2)nc1 [CBK028742] | 89%
29 | CSc1nncc(-c2ccc(Cl)cc2)n1 [CBK028747] | 77.1%
30 | OCCN1CCN(c2nccc(C(F)(F)F)n2)CC1 [CBK028754] | 107%
31 | Clc1ccc(C2N(Cc3ccccc3)CCC3CCCCN32)cc1Cl (centres unmarked) [CBK028769] | 86.6%
32 | c1ccc2c(CN3CCCNCC3)cccc2c1 [CBK028773] | 81%
33 | CCCCN1CC(C(=O)OCC)=C(O)C1=O [CBK028774] | 110%
34 | O=C1CC2(CCCC2)C(=O)N1CCNc1nccc(C(F)(F)F)n1 [CBK028777] | 97.4%
35 | O=C(NCc1ccco1)C1CCN(c2nccc(C(F)(F)F)n2)CC1 [CBK028778] | 105%
36 | Nc1cc2c(cc1Cl)C(=O)NC2=O [CBK028783] | 101%
37 | CC(=O)Nc1ccc(S(N)(=O)=O)cc1Cl [CBK028784] | 109%

Same assay, conditions: human, hela cells, % viability, bulk resorufin, single well

Row | SMILES | viability at 28.5 h, 10 µM
38 | O=C(Nc1ccccc1)Nc1cnns1 [CBK028557] | 102%
